This note sets out measurements from paper PMC5540273, “Progress towards a public chemogenomic set for protein kinases and a call for contributions” (PLoS ONE, 2017).

Structures are written as SMILES.

Common to all, as to assay: KINOMEscan competition binding
The target in one assay is T1, BMPR2 (Homo sapiens, UniProt Q13873).
T1 sequence (Q13873 27-1038): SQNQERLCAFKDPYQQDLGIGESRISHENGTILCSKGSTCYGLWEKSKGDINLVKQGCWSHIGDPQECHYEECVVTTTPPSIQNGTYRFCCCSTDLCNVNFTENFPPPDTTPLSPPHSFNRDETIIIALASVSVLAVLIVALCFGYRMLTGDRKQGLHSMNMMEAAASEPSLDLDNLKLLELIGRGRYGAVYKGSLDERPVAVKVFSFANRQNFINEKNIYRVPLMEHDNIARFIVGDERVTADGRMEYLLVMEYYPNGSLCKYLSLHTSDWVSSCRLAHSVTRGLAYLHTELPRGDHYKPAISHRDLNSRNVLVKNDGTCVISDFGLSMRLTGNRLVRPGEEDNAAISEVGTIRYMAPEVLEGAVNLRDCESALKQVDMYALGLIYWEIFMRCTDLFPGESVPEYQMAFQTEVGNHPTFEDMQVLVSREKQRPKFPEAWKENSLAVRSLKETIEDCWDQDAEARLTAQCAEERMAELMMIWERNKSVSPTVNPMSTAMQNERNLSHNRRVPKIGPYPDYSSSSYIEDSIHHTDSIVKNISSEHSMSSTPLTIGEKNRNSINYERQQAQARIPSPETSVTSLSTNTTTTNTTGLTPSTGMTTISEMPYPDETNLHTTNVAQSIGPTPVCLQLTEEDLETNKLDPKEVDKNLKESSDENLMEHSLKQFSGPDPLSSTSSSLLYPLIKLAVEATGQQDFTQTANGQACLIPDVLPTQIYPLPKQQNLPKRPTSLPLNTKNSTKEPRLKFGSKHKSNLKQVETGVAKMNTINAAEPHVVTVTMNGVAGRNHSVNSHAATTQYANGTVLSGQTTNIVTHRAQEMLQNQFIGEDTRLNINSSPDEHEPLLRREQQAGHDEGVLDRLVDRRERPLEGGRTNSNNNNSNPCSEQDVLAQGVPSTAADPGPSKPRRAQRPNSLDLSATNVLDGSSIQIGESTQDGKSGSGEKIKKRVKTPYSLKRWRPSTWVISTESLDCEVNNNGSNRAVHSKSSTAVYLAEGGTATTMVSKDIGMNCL
The conditions noted are these: read-out: %Inh BMPR2.

A further assay deals with CAMK2B (Homo sapiens, UniProt Q13554). The following applies: read-out: %Inh CAMK2B.
Sequence of CAMK2B (Q13554 whole entry): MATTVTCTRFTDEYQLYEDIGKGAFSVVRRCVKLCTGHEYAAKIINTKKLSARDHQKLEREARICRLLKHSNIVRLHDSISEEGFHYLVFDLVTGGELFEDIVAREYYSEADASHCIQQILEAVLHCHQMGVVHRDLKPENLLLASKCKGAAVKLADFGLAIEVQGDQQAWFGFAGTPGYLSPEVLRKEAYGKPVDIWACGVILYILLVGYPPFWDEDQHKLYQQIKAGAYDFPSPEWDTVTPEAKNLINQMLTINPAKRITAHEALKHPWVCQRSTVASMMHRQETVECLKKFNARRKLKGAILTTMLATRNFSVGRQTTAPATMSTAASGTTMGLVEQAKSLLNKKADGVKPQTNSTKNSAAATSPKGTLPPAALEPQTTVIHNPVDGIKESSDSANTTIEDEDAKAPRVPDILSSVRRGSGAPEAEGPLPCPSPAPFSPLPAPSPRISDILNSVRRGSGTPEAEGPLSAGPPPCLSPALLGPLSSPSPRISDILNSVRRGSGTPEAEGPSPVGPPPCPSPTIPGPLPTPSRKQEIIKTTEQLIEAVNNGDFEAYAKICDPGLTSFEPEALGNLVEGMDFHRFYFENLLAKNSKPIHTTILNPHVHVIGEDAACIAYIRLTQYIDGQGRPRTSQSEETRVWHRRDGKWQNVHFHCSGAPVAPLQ
The target of the next assay is CAMKK2 (Homo sapiens, UniProt Q96RR4). The conditions noted are these: read-out: %Inh CAMKK2.
Sequence of CAMKK2 (Q96RR4 whole entry): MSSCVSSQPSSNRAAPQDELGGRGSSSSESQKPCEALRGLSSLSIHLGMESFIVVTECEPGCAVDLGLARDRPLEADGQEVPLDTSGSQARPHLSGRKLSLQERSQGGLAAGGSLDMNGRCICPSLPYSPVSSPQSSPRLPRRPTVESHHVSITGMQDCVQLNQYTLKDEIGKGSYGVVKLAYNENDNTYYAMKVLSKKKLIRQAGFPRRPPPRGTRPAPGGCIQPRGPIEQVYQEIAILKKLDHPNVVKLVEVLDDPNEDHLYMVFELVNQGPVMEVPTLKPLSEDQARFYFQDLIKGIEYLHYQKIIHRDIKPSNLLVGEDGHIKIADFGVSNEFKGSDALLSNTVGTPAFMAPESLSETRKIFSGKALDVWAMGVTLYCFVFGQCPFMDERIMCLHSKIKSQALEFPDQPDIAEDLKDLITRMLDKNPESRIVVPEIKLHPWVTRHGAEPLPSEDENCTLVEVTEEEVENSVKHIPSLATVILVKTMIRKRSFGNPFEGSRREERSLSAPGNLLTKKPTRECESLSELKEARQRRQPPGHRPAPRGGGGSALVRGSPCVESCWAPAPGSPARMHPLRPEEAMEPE
For a further assay, the target named is CSNK2A1 (Homo sapiens, UniProt P68400). The following applies: read-out: %Inh CSNK2A1.
Sequence of CSNK2A1 (P68400 whole entry): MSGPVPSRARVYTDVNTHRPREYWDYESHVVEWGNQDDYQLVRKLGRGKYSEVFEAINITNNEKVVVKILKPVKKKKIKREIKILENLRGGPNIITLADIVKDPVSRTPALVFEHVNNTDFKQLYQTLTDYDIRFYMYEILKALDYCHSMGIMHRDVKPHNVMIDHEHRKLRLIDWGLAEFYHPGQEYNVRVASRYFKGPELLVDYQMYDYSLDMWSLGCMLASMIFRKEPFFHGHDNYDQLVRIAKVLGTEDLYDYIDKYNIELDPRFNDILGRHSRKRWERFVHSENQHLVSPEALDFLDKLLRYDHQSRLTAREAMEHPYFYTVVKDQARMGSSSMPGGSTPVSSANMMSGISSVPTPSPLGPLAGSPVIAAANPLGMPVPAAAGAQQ
Another assay deals with T2, DCAMKL1 (Homo sapiens, UniProt O15075).
T2 sequence (O15075 1-740): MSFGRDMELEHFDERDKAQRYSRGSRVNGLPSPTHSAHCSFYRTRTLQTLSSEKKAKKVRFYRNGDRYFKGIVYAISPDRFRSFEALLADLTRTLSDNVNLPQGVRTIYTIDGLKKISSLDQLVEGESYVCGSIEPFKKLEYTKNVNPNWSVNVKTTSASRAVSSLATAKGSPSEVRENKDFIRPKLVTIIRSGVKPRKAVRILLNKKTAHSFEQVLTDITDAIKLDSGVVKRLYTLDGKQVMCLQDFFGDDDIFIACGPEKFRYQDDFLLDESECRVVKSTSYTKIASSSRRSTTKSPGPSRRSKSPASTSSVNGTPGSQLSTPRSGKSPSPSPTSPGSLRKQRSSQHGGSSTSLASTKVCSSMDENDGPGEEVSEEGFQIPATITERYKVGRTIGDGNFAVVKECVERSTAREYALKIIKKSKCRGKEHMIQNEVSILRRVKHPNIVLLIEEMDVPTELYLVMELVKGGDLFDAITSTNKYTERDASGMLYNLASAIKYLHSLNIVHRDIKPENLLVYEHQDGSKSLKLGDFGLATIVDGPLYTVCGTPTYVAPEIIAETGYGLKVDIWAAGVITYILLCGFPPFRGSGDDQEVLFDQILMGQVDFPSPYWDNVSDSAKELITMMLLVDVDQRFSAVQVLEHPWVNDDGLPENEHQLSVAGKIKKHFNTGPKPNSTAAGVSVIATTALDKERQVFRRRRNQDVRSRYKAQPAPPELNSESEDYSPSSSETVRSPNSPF
The conditions noted are these: read-out: %Inh DCAMKL1.

The target of the next assay is ERK5 (Homo sapiens, UniProt Q13164). The conditions noted are these: read-out: %Inh ERK5.
Sequence of ERK5 (Q13164 whole entry): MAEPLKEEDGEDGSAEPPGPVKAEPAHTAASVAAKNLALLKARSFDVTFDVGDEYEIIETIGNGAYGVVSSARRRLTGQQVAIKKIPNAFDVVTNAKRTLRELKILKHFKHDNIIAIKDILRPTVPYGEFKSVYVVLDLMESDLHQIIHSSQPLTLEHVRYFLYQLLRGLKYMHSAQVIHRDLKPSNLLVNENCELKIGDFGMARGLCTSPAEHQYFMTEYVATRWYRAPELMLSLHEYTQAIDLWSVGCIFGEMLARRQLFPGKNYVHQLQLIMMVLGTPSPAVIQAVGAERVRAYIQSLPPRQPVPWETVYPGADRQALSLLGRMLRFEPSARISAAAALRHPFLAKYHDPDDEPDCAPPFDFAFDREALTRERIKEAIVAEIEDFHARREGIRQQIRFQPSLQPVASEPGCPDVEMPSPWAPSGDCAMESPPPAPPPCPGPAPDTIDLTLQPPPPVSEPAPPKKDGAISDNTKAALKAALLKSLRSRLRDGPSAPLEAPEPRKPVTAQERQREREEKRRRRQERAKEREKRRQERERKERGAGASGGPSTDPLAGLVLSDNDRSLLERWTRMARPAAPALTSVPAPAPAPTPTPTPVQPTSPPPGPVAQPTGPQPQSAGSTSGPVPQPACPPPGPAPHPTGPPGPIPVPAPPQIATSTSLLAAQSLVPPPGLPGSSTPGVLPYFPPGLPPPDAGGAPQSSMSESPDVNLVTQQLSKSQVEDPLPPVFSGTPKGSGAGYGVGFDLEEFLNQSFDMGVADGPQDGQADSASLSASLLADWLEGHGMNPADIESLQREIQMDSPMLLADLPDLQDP
For a further assay, the target named is FER (Homo sapiens, UniProt P16591). The following applies: read-out: %Inh FER.
Sequence of FER (P16591 whole entry): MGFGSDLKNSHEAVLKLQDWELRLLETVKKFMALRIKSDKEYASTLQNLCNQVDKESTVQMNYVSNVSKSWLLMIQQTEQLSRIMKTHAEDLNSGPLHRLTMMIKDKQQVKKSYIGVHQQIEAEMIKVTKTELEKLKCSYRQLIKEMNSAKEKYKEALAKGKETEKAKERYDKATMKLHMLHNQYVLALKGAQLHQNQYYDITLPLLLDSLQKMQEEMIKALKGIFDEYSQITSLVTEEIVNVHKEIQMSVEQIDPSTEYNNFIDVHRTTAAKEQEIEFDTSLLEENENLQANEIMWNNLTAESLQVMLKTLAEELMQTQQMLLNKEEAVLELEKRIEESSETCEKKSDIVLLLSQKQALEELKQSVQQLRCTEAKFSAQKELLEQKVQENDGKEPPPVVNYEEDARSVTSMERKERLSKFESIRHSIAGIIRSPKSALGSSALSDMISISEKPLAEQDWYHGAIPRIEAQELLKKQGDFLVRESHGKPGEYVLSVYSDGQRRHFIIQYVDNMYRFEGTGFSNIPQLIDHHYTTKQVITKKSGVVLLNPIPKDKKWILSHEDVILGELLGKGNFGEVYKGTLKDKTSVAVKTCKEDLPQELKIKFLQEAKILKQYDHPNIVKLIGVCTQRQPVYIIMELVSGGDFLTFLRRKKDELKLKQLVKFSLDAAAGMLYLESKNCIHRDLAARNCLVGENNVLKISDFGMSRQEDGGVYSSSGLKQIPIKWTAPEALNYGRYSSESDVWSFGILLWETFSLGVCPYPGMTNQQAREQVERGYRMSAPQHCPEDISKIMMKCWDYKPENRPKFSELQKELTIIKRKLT

For `Cn1cc(-c2cnc(N)c3c(-c4ccc5c(c4)CCN5C(=O)Cc4ccccc4)csc23)cn1` [UNC10225012A], the inhibition at 1 µM came to 6% on BMPR2; 12% on CAMK2B; 19% at CAMKK2; 0% at CSNK2A1; 0% at DCAMKL1; 15% at ERK5. Besides, the inhibition at 1 µM on FER stood at 10%.

Regarding `CS(=O)(=O)Cc1ccc(Nc2nccc(-c3c(-c4cccc(NC(=O)C5CCCCC5)c4)nn4ncccc34)n2)cc1` [UNC10225159A], the inhibition at 1 µM turned out to be 24% at BMPR2; 8% at CAMK2B; 0% at CAMKK2; 17% on CSNK2A1; 0% at DCAMKL1; 0% at ERK5. Besides, the inhibition at 1 µM on FER is 8%.

On to `Cc1ccc(NC(=O)Nc2cccc(C(F)(F)F)c2)cc1` [UNC10225187A], for which the inhibition at 1 µM came to 1% on BMPR2; 25% on CAMK2B; 19% at CAMKK2; 1% at CSNK2A1; 0% at DCAMKL1; 5% on ERK5. The inhibition at 1 µM on FER came to 0%.

Take `COc1cccc(OC)c1C(=O)Nc1cccc(-c2nn3ccccc3c2-c2ccnc(Nc3cccc(F)c3)n2)c1` [UNC10225310A]: the inhibition at 1 µM at BMPR2 was determined as 0%; at CAMK2B, 6%; on CAMKK2, 0%; on CSNK2A1, 0%; at DCAMKL1, 16%; on ERK5, 2%. The inhibition at 1 µM at FER came to 24%.

Regarding `O=c1cc(N2CCOCC2)nc2n(Cc3cccc(Cl)c3Cl)c(C3CC3)nn12` [UNC10225469A], the inhibition at 1 µM at BMPR2 was 13%; at CAMK2B, 10%; on CAMKK2, 8%; on CSNK2A1, 16%; on DCAMKL1 it was 0%; at ERK5, 0%. Further, the inhibition at 1 µM on FER was 3%.
